Assay [1] has as its system BT474 (human breast carcinoma). The experiment in a line: In vitro tumor cell proliferation assay (Cell Titer-Glo luminescent cell viability), BT474 cells. The note with it: BT-474, 72 h drug exposure, ATP luminescence readout, read-out: IC50, anti-proliferative activity (inhibition of cell proliferation) in BT474 cells. The class given is cell-based. An excerpt:
(§1) The tumor cell proliferation assay used to test the compounds of the present invention involves a readout called Cell Titer-Glow® Luminescent Cell Viability Assay developed by Promega® (Cunningham, B A “A Growing Issue: Cell Proliferation Assays, Modern kits ease quantification of cell growth” The Scientist 2001, 15(13), 26, and Crouch, S P et al., “The use of ATP bioluminescence as a measure of cell proliferation and cytotoxicity” Journal of Immunological Methods 1993, 160, 81-88), that measures inhibition of cell proliferation. Generation of a luminescent signal corresponds to the amount of ATP present, which is directly proportional to the number of metabolically active (proliferating) cells.
(§2) A431 cells (human epidermoid carcinoma, ATCC # HTB-20) and BT474 (human breast carcinoma, ATCC # CRL-1555) were plated at a density of 2.5×10^3 cells/well in 96 well black-clear bottom tissue culture plates in RPMI media with 10% Fetal Bovine Serum and incubated at 37° C. Twenty-four h later, test compounds are added at a final concentration range from as high 100 μm to as low 64 pM depend on the activities of the tested compounds in serial dilutions at a final DMSO concentration of 0.1%. Cells were incubated for 72 h at 37° C. in complete growth media after addition of the test compound. After 72 h of drug exposure, the plates were equilibrated to room temperature for approximately 30 min. Then, using a Promega Cell Titer Glo Luminescent® assay kit, lysis buffer containing 100 microliters of the enzyme luciferase and its substrate, luciferin mixture, was added to each well. The plates were mixed for 2 min on orbital shaker to ensure cell lysis and incubated for 10 min at room temperature to stabilize luminescence signal. The samples were read on VICTOR 2 using Luminescence protocol, and analyzed with Analyze5 software to generate IC50 values.
(§3) For determination of IC50's, a linear regression analysis can be used to determine drug concentration which results in a 50% inhibition of cell proliferation using this assay format. In A431 cells, Examples 1-7, 9-11, 14-18, and 20-21 have IC50's≦5 μM; whereas examples 8, 12, 13, 19, and 22 have IC50's≦50 μM. In BT474 cells, examples 1-7, 9-11, 13-18, and 20-22 have IC50's≦50 μM; whereas examples 8, 12, and 19 have IC50's≦50 μM.
For orientation: Cellular ATP, detected with luciferase, serves as a proxy for viable cell number.

The test system of assay [2] is A431 cells (human epidermoid carcinoma). The assay can be described thus: In vitro tumor cell proliferation assay (Cell Titer-Glo luminescent cell viability), A431 cells. As to conditions: A-431, 72 h drug exposure, ATP luminescence readout, read-out: IC50, anti-proliferative activity (inhibition of cell proliferation) in A431 cells. The class given is cell-based.
Source text: as §1, §2, §3

Drawing on patent US7511048B2, “Pyrimidothienoindazoles” (Bayer Pharmaceuticals Corporation, priority 2004, dated 2009), this text covers IC50 for 22 compounds.

pIC50: −log10 of the molar value. Counter-ions that a name gives are not always drawn.

Regarding `OCCn1cc2c(ccc3c2sc2ncnc(Nc4ccc(F)c(Cl)c4)c23)n1` [Example 1, 2-{6-[(3-chloro-4fluorophenyl)amino]-2H-pyrimido[5′,4′:4,5]thieno[2,3-e]indazol-2-yl}ethanol], the pIC50 in assay [1] is at least 4.30; in assay [2], at least 5.30.

With `CS(=O)(=O)OCCn1cc2c(ccc3c2sc2ncnc(Nc4ccc(F)c(Cl)c4)c23)n1` [Example 2, 2-{6-[(3-chloro-4fluorophenyl)amino]-2H-pyrimido[5′,4′:4,5]thieno[2,3-e]indazol-2-yl}ethylmethanesulfonate], the pIC50 is at least 4.30 in assay [1] and at least 5.30 in assay [2].

For the compound `CS(=O)(=O)CCNCCn1cc2c(ccc3c2sc2ncnc(Nc4ccc(F)c(Cl)c4)c23)n1` [Example 3, N-(3-chloro-4-fluorophenyl)-2-(2-{[2-(methylsulfonyl)ethyl]amino}ethyl)-2H-pyrimido[5′,4′:4,5]thieno[2,3-e]indazol-6-amine], the pIC50 in assay [1] is at least 4.30; in assay [2], at least 5.30.

For the compound `CN(C)[C@@H]1CCN(CCn2cc3c(ccc4c3sc3ncnc(Nc5ccc(F)c(Cl)c5)c34)n2)C1` [Example 4], the pIC50 is at least 4.30 in assay [1] and at least 5.30 in assay [2].

Take `Fc1ccc(Nc2ncnc3sc4c5cn(CCNCCN6CCOCC6)nc5ccc4c23)cc1Cl` [Example 5, N-(3-chloro-4-fluorophenyl)-2-{2-[(2-morpholin-4-ylethyl)amino]ethyl}-2H-pyrimido[5′,4′:4,5]thieno[2,3-e]indazol-6-amine]: the pIC50 in assay [1] is at least 4.30; in assay [2] it was at least 5.30.

Turning to `COCCNCCn1cc2c(ccc3c2sc2ncnc(Nc4ccc(F)c(Cl)c4)c23)n1` [Example 6, N-(3-chloro-4-fluorophenyl)-2-{2-[(2-methoxyethyl)amino]ethyl}-2H-pyrimido[5′,4′:4,5]thieno[2,3-e]indazol-6-amine], the pIC50 in assay [1] was at least 4.30; in assay [2], at least 5.30.

With `OCCNCCn1cc2c(ccc3c2sc2ncnc(Nc4ccc(F)c(Cl)c4)c23)n1` [Example 7, 2-[(2-{6-[(3-chloro-4-fluorophenyl)amino]-2H-pyrimido[5′,4′:4,5]thieno[2,3-e]indazol-2-yl}ethyl)amino]ethanol], the results for the pIC50 in assay [1] and in assay [2] were at least 4.30 and at least 5.30, respectively.

Regarding `COCCN(CCOC)CCn1cc2c(ccc3c2sc2ncnc(Nc4ccc(F)c(Cl)c4)c23)n1` [Example 8, 2-{2-[bis(2-methoxyethyl)amino]ethyl}-N-(3-chloro-4-fluorophenyl)-2H-pyrimido[5′,4′:4,5]thieno[2,3-e]indazol-6-amine], the pIC50 in assay [1] and in assay [2] was at least 4.30 each time.

As to `Fc1ccc(Nc2ncnc3sc4c5cn(CCN6CCOCC6)nc5ccc4c23)cc1Cl` [Example 9, N-(3-chloro-4-fluorophenyl)-2-(2-morpholin-4-ylethyl)-2H-pyrimido[5′,4′:4,5]thieno[2,3-e]indazol-6-amine], the pIC50 was at least 4.30 in assay [1] and at least 5.30 in assay [2].

With `Fc1ccc(Nc2ncnc3sc4c5cn(CCN6CCNCC6)nc5ccc4c23)cc1Cl` [Example 10, N-(3-chloro-4-fluorophenyl)-2-(2-piperazin-1-ylethyl)-2H-pyrimido[5′,4′:4,5]thieno[2,3-e]indazol-6-amine], the pIC50 is at least 4.30 in assay [1] and at least 5.30 in assay [2].

Take `CN1CCN(CCn2cc3c(ccc4c3sc3ncnc(Nc5ccc(F)c(Cl)c5)c34)n2)CC1` [Example 11, N-(3-chloro-4-fluorophenyl)-2-[2-(4-methylpiperazin-1-yl)ethyl]-2H-pyrimido[5′,4′:4,5]thieno[2,3-e]indazol-6-amine]: the pIC50 was at least 4.30 in assay [1] and at least 5.30 in assay [2].

On to `Fc1ccc(Nc2ncnc3sc4c5cn(CCn6ccnc6)nc5ccc4c23)cc1Cl` [Example 12, N-(3-chloro-4-fluorophenyl)-2-[2-(1H-imidazol-1-yl)ethyl]-2H-pyrimido[5′,4′:4,5]thieno[2,3-e]indazol-6-amine], for which the pIC50 in assay [1] and in assay [2] was at least 4.30 throughout.

As to `CN(C)[C@H]1CCN(CCn2cc3c(ccc4c3sc3ncnc(Nc5ccc(F)c(Cl)c5)c34)n2)C1` [Example 13, N-(3-chloro-4-fluorophenyl)-2-{2-[(3S)-3-(dimethylamino)pyrrolidin-1-yl]ethyl}-2H-pyrimido[5′,4′:4,5]thieno[2,3-e]indazol-6-amine], the pIC50 in assay [1] and in assay [2] was at least 4.30 throughout.

`OCCN(CCO)CCn1cc2c(ccc3c2sc2ncnc(Nc4ccc(F)c(Cl)c4)c23)n1` [Example 14, 2,2′-[(2-{6-[(3-chloro-4-fluorophenyl)amino]-2H-pyrimido[5′,4′:4,5]thieno[2,3-e]indazol-2-yl}ethyl)imino]diethanoltrifluoroacetate (salt)]: the pIC50 in assay [1] is at least 4.30; in assay [2] it was at least 5.30.

Turning to `COCCN1CCN(CCn2cc3c(ccc4c3sc3ncnc(Nc5ccc(F)c(Cl)c5)c34)n2)CC1` [Example 15, N-(3-chloro-4-fluorophenyl)-2-{2-[4-(2-methoxyethyl)piperazin-1-yl]ethyl}-2H-pyrimido[5′,4′:4,5]thieno[2,3-e]indazol-6-amine], the pIC50 is at least 4.30 in assay [1] and at least 5.30 in assay [2].

Turning to `Fc1ccc(Nc2ncnc3sc4c5cn(CCN6CCCCC6)nc5ccc4c23)cc1Cl` [Example 16, N-(3-chloro-4-fluorophenyl)-2-(2-piperidin-1-ylethyl)-2H-pyrimido[5′,4′:4,5]thieno[2,3-e]indazol-6-amine], the figures for the pIC50 in assay [1] and in assay [2] were at least 4.30 and at least 5.30, respectively.

For the compound `Fc1ccc(Nc2ncnc3sc4c5cn(CCN6CCCC6)nc5ccc4c23)cc1Cl` [Example 17, N-(3-chloro-4-fluorophenyl)-2-(2-pyrrolidin-1-ylethyl)-2H-pyrimido[5′,4′:4,5]thieno[2,3-e]indazol-6-amine], the pIC50 in assay [1] is at least 4.30; in assay [2] it was at least 5.30.

For the compound `Fc1ccc(Nc2ncnc3sc4c5cn(CCN6CCN(Cc7ccncc7)CC6)nc5ccc4c23)cc1Cl` [Example 18, N-(3-chloro-4-fluorophenyl)-2-{2-[4-(pyridin-4-ylmethyl)piperazin-1-yl]ethyl}-2H-pyrimido[5′,4′:4,5]thieno[2,3-e]indazol-6-amine], the pIC50 in assay [1] is at least 4.30; in assay [2] it was at least 5.30.

With `COCCN(C)CCn1cc2c(ccc3c2sc2ncnc(Nc4ccc(F)c(Cl)c4)c23)n1` [Example 19, N-(3-chloro-4-fluorophenyl)-2-{2-[(2-methoxyethyl)(methyl)amino]ethyl}-2H-pyrimido[5′,4′:4,5]thieno[2,3-e]indazol-6-amine], the pIC50 in assay [1] and in assay [2] was at least 4.30 each time.

As to `CN(C)[C@H]1CCN(CCn2ncc3c4sc5ncnc(Nc6ccc(F)c(Cl)c6)c5c4ccc32)C1` [Example 20, N-(3-chloro-4-fluorophenyl)-3-{2-[(3S)-3-(dimethylamino)pyrrolidin-1-yl]ethyl}-3H-pyrimido[5′,4′:4,5]thieno[2,3-e]indazol-6-amine], the values for the pIC50 in assay [1] and in assay [2] were at least 4.30 and at least 5.30, respectively.

As to `OCCn1ncc2c3sc4ncnc(Nc5ccc(OCc6cccc(F)c6)c(Cl)c5)c4c3ccc21` [Example 21, 2-[6-({3-chloro-4-[(3-fluorobenzyl)oxy]phenyl}amino)-3H-pyrimido[5′,4′:4,5]thieno[2,3-e]indazol-3-yl]ethanol], the pIC50 in assay [1] was at least 4.30; in assay [2] it was at least 5.30.

`Clc1cc(Nc2ncnc3sc4c(ccc5c4cnn5CCBr)c23)ccc1OCc1ccccn1` [Example 22, 3-(2-bromoethyl)-N-[3-chloro-4-(pyridin-2-ylmethoxy)phenyl]-3H-pyrimido[5′,4′:4,5]thieno[2,3-e]indazol-6-amine]: the pIC50 in assay [1] and in assay [2] was at least 4.30 throughout.
